Measured values published in PMC9655428, “N-Hydroxy-N-Propargylamide Derivatives of Ferulic Acid: Inhibitors of Cholinesterases and Monoamine Oxidases” (Molecules, 2022).
Entries after “also recorded” stand apart in the source; their conditions may differ.

Columns and labels:
[1] = target: T1, hAChE (Homo sapiens, UniProt P22303); assay: Inhibition of hAChE (Ellman spectrophotometric assay); format: biochemical; conditions: for hAChE % @ 10 µM: inhibition at 10 µM; for IC50: seven concentrations 30–0.01 µM
T1 construct: purchased Sigma Aldrich
T1 sequence (P22303 32-614): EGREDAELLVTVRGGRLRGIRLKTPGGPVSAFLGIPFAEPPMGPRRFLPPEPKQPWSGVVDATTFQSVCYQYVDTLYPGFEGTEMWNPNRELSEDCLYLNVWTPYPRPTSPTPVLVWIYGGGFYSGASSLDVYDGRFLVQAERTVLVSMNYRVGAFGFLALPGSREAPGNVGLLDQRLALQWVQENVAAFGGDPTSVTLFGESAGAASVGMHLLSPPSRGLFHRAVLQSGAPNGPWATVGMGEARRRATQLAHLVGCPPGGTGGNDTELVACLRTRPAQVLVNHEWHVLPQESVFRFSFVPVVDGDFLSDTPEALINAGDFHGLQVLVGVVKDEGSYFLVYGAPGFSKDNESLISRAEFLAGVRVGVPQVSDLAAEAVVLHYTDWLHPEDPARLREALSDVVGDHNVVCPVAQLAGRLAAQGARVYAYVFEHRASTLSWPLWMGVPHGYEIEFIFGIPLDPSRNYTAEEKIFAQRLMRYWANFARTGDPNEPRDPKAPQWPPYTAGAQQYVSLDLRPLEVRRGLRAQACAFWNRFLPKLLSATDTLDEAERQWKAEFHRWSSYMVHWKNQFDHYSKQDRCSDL
Description: (§1) Inhibition assays were performed according to previously published protocols. […] Compound 3 is a hydroxamate in which the piperidine ring is attached to the C4 oxygen via an n-butyl linker, while compound 6 is a corresponding N-propargylhydroxamate.
(§2) Inhibition assays were performed according to previously published protocols. […] Briefly, the classical Ellman spectrophotometric assay (for ChEs) and fluorimetric detection of 4-hydroxyquinoline (for MAOs) were adapted to a plate reading procedure using 96-well microtiter plates (Greiner Bio-Frickenhausen, Frickenhausen, Germany). Readings were performed using the Infinite M1000 Pro plate reader (Tecan, Cernusco s.N., Cernusco sul Naviglio, MI, Italy), and statistical regression was performed using Prism software (GraphPad Prism version 5.00 for Windows, GraphPad Software, San Diego, CA, USA).

[2] = target: T2, hBChE (Homo sapiens, UniProt P06276); assay: Inhibition of hBChE (Ellman spectrophotometric assay); format: biochemical; conditions: ni = no inhibition; for hBChE % @ 10 µM: inhibition at 10 µM
T2 construct: purchased Sigma Aldrich
T2 sequence (P06276 29-602): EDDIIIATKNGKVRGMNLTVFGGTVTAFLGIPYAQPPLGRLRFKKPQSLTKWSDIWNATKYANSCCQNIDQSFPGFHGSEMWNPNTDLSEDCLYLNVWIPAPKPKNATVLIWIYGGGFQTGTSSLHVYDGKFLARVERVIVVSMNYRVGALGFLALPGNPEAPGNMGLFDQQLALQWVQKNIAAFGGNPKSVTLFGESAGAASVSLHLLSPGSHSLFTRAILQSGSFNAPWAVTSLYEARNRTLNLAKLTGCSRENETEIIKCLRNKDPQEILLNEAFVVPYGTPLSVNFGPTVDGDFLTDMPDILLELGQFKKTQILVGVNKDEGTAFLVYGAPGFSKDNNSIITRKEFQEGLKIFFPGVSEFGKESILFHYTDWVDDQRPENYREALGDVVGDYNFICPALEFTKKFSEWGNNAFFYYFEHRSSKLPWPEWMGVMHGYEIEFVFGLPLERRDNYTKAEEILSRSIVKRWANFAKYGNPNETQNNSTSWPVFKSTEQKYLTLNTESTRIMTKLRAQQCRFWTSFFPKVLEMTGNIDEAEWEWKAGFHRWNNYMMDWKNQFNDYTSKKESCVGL
Description: as §1, §2

[3] = target: T3, hMAO-A (Homo sapiens, UniProt P21397); assay: Inhibition of hMAO-A (fluorimetric detection of 4-hydroxyquinoline); format: biochemical; conditions: ni = no inhibition
T3 construct: purchased Sigma Aldrich
T3 sequence (P21397 1-527): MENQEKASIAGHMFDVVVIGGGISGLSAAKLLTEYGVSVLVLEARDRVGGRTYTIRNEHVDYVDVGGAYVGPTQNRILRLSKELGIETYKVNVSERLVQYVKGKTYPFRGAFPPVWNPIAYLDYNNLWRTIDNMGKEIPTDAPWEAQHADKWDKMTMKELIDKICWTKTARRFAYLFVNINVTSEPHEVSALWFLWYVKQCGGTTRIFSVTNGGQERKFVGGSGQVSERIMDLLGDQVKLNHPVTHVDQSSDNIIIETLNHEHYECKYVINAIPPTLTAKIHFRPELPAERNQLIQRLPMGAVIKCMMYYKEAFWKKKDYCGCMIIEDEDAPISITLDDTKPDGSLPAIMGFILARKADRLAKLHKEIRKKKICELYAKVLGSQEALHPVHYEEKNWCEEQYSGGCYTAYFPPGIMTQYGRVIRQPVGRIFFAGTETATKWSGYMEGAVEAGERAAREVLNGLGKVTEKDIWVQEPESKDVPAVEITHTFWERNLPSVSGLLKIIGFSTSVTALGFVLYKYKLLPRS
Description: as §1, §2

[4] = target: T4, hMAO-B (Homo sapiens, UniProt P27338); assay: Inhibition of hMAO-B (fluorimetric detection of 4-hydroxyquinoline); format: biochemical; conditions: ni = no inhibition
T4 construct: purchased Sigma Aldrich
T4 sequence (P27338 1-520): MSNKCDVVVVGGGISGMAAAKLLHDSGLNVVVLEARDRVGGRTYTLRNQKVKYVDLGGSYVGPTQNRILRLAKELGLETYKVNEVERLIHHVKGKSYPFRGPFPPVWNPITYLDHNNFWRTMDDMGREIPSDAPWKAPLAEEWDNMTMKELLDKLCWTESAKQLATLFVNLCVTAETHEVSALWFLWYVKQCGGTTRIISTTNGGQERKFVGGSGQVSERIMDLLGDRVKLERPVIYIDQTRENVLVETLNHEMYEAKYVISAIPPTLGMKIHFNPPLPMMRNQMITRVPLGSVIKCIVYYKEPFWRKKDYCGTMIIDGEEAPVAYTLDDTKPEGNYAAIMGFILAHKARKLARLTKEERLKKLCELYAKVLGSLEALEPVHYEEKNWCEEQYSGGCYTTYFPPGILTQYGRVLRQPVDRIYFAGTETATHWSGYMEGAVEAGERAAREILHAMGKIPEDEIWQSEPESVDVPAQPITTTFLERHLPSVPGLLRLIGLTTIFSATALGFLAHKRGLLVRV
Description: as §1, §2

[5] = DPPH radical-scavenging assay; conditions: DPPH 70 µM in MeOH, 1.5 h incubation
Source text: In addition, antioxidants or natural products containing polyphenols are also being investigated in clinical trials involving AD patients. Therefore, the antioxidant properties of compound 4 were investigated using the 2,2-diphenyl-1-picrylhydrazyl radical (DPPH) scavenging assay, a simple and reliable in vitro assay. […] Hydroxamic acids are considered to be potent antioxidants, and, in combination with cholinesterase inhibitory activity, could not only alleviate symptoms but also have disease-modifying effects.
Compound 4 at concentrations of 3.125–50 µM was incubated for 1.5 h with 2,2-diphenyl-1-picrylhydrazyl radical (DPPH, 70 µM) in MeOH, and absorbance was measured (λ = 517 nm) using a Synergy™ H4 reader (BioTek Instruments, Inc., Winooski, VT, USA). The experiment was performed in three technical replicates, and the blank sample (compound 4 without DPPH) was subtracted. The results are expressed as the percentage of DPPH free radicals (DPPH free radicals (%) = ((A0 − A1)/A0) × 100, where A0 is the absorbance of DPPH in MeOH and A1 is the absorbance of DPPH in the presence of compound 4).

[6] = Metal chelation, UV-Vis absorption assay, Cu2+; format: physicochemical; conditions: 30 µM compound, equimolar CuCl2, 30 min, pH 7.4
Description: (§3) Another therapeutic possibility currently under investigation is metal chelation, which could affect not only the redox cycling of metal ions but also Aβ- and tau-pathology. Metal chelation of compound 4 was investigated using a UV-Vis absorption assay, in which the compound was incubated with equimolar concentrations of the major bivalent biometals (i.e., Ca^2+, Mg^2+, Zn^2+, Cu^2+, Fe^2+, Mn^2+, Co^2+, and Ni^2+) (Figure 4).
(§4) Metal chelation was determined in assay buffer (20 mM Na-HEPES, 150 mM NaCl, pH 7.4) according to the procedure described previously. Stock solutions of the metals at 100 mM concentrations were prepared in MilliQ water (Milli-Q advantage A10 Ultrapure Water Purification System, Millipore, KGaA, Darmstadt, Germany). The FeCl2 stock solution (100 mM) was prepared in the presence of ascorbic acid (1 mM). Compound 4 at a concentration of 30 μM was incubated for 30 min with equimolar concentrations of CuCl2, ZnCl2, MgCl2, CaCl2, MnCl2, FeCl2, CoCl2, and NiCl2. Absorbance spectra were measured on a Synergy™ H4 reader (BioTek Instruments, Inc., Winooski, VT, USA).

[7] = Metal chelation, UV-Vis absorption assay, Fe2+; format: physicochemical; conditions: 30 µM compound, equimolar FeCl2, 30 min, pH 7.4
Description: as §3, §4

[8] = Metal chelation, UV-Vis absorption assay, Ca2+; format: physicochemical; conditions: 30 µM compound, equimolar CaCl2, 30 min, pH 7.4
Description: as §3, §4

SMILES	hAChE % @ 10 µM [1]	hBChE % @ 10 µM [2]	inhibition at 10 µM [3]	inhibition at 10 µM [4]	IC50 [1]	other results
O=C(NO)c1ccccc1 [Compound 15, N-Hydroxybenzamide]	58 ± 5%	ni	11 ± 3%	16 ± 3%		
COc1cc(/C=C/C(=O)NO)ccc1OCCCCN1CCCCC1 [Compound 3, (E)-N-Hydroxy-3-(3-methoxy-4-(4-(piperidin-1-yl)butoxy)phenyl)acrylamide]		ni	5 ± 3%	11 ± 4%	6.58 ± 0.27 µM	
COc1cc(/C=C/C(=O)NO)ccc1OCCCN1CCCCC1 [Compound 2, (E)-N-Hydroxy-3-(3-methoxy-4-(3-(piperidin-1-yl)propoxy)phenyl)acrylamide]	42 ± 2%	ni	15 ± 5%	21 ± 4%		
C#CCN(O)C(=O)/C=C/c1ccc(OCCCN2CCCCC2)c(OC)c1 [Compound 5, (E)-N-Hydroxy-3-(3-methoxy-4-(3-(piperidin-1-yl)propoxy)phenyl)-N-(prop-2-yn-1-yl)acrylamide]	41 ± 4%	ni	23 ± 6%	16 ± 5%		
C#CCN(O)C(=O)/C=C/c1ccc(OCCCCN2CCCCC2)c(OC)c1 [Compound 6, (E)-N-Hydroxy-3-(3-methoxy-4-(4-(piperidin-1-yl)butoxy)phenyl)-N-(prop-2-yn-1-yl)acrylamide]		ni			7.2 ± 0.54 µM	hMAO-A % @ 10 µM ([3]; inhibition at 10 µM): ni; hMAO-B % @ 10 µM ([4]; inhibition at 10 µM): ni
Cc1c(C)c2c(c(C)c1O)CCC(C)(C(=O)O)O2 (stereo not shown) [Trolox, reference compound]						EC50 [5]: 12.4 ± 0.3 µM
COc1cc(/C=C/C(=O)NO)ccc1OCCN1CCCCC1 [Compound 1, (E)-N-Hydroxy-3-(3-methoxy-4-(2-(piperidin-1-yl)ethoxy)phenyl)acrylamide]	51 ± 2%		20 ± 5%	26 ± 5%		inhibition at 10 µM [2]: 18 ± 4%
C#CCN(O)C(=O)/C=C/c1ccc(OCCN2CCCCC2)c(OC)c1 [Compound 4, (E)-N-Hydroxy-3-(3-methoxy-4-(2-(piperidin-1-yl)ethoxy)phenyl)-N-(prop-2-yn-1-yl)acrylamide]			26 ± 5%	20 ± 4%	2.63 ± 0.57 µM	inhibition at 10 µM [2]: 38 ± 2%; EC50 [5]: 40.9 ± 0.5 µM; Cu^2+ chelation (spectral change) [6]: efficiently bound Cu^2+ ions; also recorded: chelated divalent copper ions; Fe^2+ chelation (spectral change) [7]: ferrous ions were also bound; Ca^2+ chelation (spectral change) [8]: does not appear to be due to the formation of a Ca^2+/4 complex
C#CCN(O)C(=O)c1ccccc1 [Compound 16, N-Hydroxy-N-(prop-2-yn-1-yl)benzamide]	40 ± 4%	ni	14 ± 4%	16 ± 5%		
